122 compounds from a melting point compilation (Tetko et al.) can be followed below.

A word on the melting point: it is the temperature of the solid-liquid transition.

With `O=c1c(Cl)c(Cl)cnn1-c1ccc(S(=O)(=O)Cl)cc1`, the melting point is 144 to 146 °C.
For `Nc1ccc(OCC(F)(F)F)cc1` the value was 66 to 68 °C; for `O=S(=O)(Nc1cccc(Br)c1)c1ccccc1`, 116 to 118 °C; for `COc1ccc(-c2cc(N)n(-c3cccc(C)c3)n2)cc1`, 125 to 127 °C.
The compound `Cc1ccc(-n2cccc2)c(C(=O)O)c1` came in with a melting point of 126 to 128 °C.
Under `COCC(=O)c1cccc([N+](=O)[O-])c1` stands 105 to 107 °C; under `CC(C)Nc1ccc(S(C)(=O)=O)cc1`, 111 to 113 °C; under `COC(=O)c1ccc(CS(N)(=O)=O)cc1`, 138 to 140 °C.
For `Cc1nc(-c2ccc(Br)cc2)sc1C(C)O` (configuration not stated) the value was 119 to 121 °C; for `Cn1c(Cl)c(C=O)c2cc(C=O)ccc21`, 164 to 166 °C.
For `N=C(N)Nc1nc2ccccc2[nH]1` the value was 242 to 244 °C; for `CC1CCN(c2ccc([N+](=O)[O-])cc2C(=O)O)CC1`, 160 to 162 °C; for `O=C1CC2(CCCc3ccccc32)C(=O)O1` (configuration not stated), 99 to 101 °C.
The compound `O=C(CSc1nnc(NCc2ccccc2)s1)NCC1CCCCC1` came in with a melting point of 134 to 136 °C.
In turn, `Nc1cc(C(=O)O)c(Br)cn1` displayed a melting point of 276 to 278 °C.
Turning to `O=C(O)C1CCCN(C(=O)N2CCc3sccc3C2)C1` (configuration not stated), the melting point lay in the range of 66 to 68 °C.
Under `Cc1ccc(-c2cncc(C(=O)O)c2)cc1` stands 266 to 268 °C.
Under `Oc1ccc(-c2nc3cc(C(F)(F)F)ccc3s2)cc1` stands 182 to 184 °C; under `COC(=O)c1cc(F)cc(OC)c1N`, 66 to 68 °C; under `COc1ccc(-c2nc(N)sc2C)cc1`, 120 to 122 °C.
Under `O=C(O)C1CCN(S(=O)(=O)c2ccccc2C(F)(F)F)CC1` stands 127 to 129 °C; under `COc1ccccc1SCC(=O)O`, 99 to 101 °C.
`NCc1ccc(OCCCOc2ccc(Cl)cc2Cl)cc1` gave a melting point of 51 to 53 °C.
Under `Cc1csc(=O)[nH]1` stands 98 to 100 °C; under `CC(C)(C)c1ccc2c(c1)C(O)CC2` (configuration not stated), 73 to 75 °C; under `O=c1[nH]cnc2cnc(Cl)cc12`, 309 to 311 °C.
For the compound `CC(C)(C)OC(=O)NC1CCC(O)CC1` (configuration not stated), the melting point was 169 to 171 °C.
For `O=C(O)Cn1cc(Br)c(=O)[nH]c1=O` the value was 266 to 268 °C.
With `COc1ccc(C(=O)Nc2ccc(C(=O)O)s2)cc1`, the melting point was in the range of 198 to 200 °C.
As to `CC1Nc2cc(=O)[nH]n2C(C)C1CC(=O)O` (configuration not stated), the melting point is 235 to 237 °C.
For `CNC(=O)c1cccc(N)c1` the value was 122 to 124 °C; for `Fc1cc(CBr)ccc1Br`, 38 to 40 °C.
`CCN(CC)c1ccc(-c2nnc(S)o2)cc1` registered a melting point of 163 to 165 °C.
Compound `CNC(=O)C(Br)Cc1ccccc1` (configuration not stated) came in with a melting point of 103 to 105 °C.
Take `N#Cc1cc([N+](=O)[O-])ccc1S(=O)(=O)Cl`: the melting point lay in the range of 99 to 101 °C.
`O=Cc1cn(-c2ccccc2)nn1` yielded a melting point of 97 to 99 °C.
`O=C(O)C1CCCN1C(=O)Cc1cn2ccsc2n1` (configuration not stated) returned a melting point of 121 to 123 °C.
For the compound `CSC(=CC(=O)c1cccnc1)SC`, the melting point is 103 to 105 °C.
Compound `O=C(Nc1nncs1)C1CCNCC1` had a melting point of 202 to 204 °C.
For `CC(C)C(Br)C(=O)NCc1ccco1` (configuration not stated) the value was 91 to 93 °C; for `COc1ccc2cc(C(=O)O)[nH]c2c1`, 190 to 192 °C.
Regarding `COC(=O)C(=O)CC(=O)c1ccc(OC)c(OC)c1`, the melting point is 141 to 150 °C.
For `CCNC(=O)NC1(C(=O)O)CCCC1` the value was 142 to 144 °C; for `CC(C)C(C)(CC(=O)N1CCOCC1)C(=O)O` (configuration not stated), 134 to 136 °C.
`Cc1ccc2c(c1)C(=O)N(CCC(=O)O)C2=O` came in with a melting point of 163 to 165 °C.
For `N#Cc1cc(F)c(S(=O)(=O)Cl)c(F)c1` the value was 92 to 94 °C; for `O=C(c1cc(Br)c[nH]1)C(Cl)(Cl)Cl`, 125 to 127 °C; for `Cc1cccc(NC2CCNCC2)n1`, 85 to 87 °C.
Regarding `Fc1ccc(-c2csc3ncnc(S)c23)cc1`, the melting point lay within 244 to 246 °C.
`CC(N)c1ccc(-c2cccnc2)cc1` (configuration not stated) returned a melting point of 47 to 49 °C.
As for `Nc1ccnc2nc(C(F)(F)F)nn12`, the melting point is 221 to 223 °C.
As for `CN1CN=C(S)NC1`, the melting point was in the range of 173 to 177 °C.
Take `CC(C)(C)OC(=O)N1CCC(C(=O)O)C1` (configuration not stated): the melting point lay in the range of 134 to 136 °C.
For `Cc1nnnn1-c1ccc(F)c(NC(=O)CCl)c1` the value was 179 to 181 °C; for `Cc1cccc(NC(S)=C(C#N)c2nc3ccccc3s2)c1C`, 94 to 98 °C; for `Cc1noc(C(C)C)c1C(=O)O`, 147 to 151 °C.
Compound `N#Cc1cccc(OCC(F)(F)F)n1` displayed a melting point of 51 to 53 °C.
Under `O=C(O)c1noc2c1CCCC2` stands 124 to 126 °C; under `N#CCC(=O)c1cccc([N+](=O)[O-])c1`, 149 to 151 °C.
For `CCCn1c(S)nnc1-c1ccncc1`, the melting point was 258 to 260 °C.
Compound `Nc1ccc(C(=O)CCC(=O)O)cc1` returned a melting point of 184 to 186 °C.
`N#Cc1c(S)nc2c(c1-c1ccco1)CCC2` registered a melting point of 279 to 281 °C.
Under `Cn1cccc1C(=O)CCl` stands 30 to 40 °C.
For `Nc1nonc1C(=O)O`, the melting point lay in the range of 214 to 216 °C.
Under `CC(Cc1nnc(S)o1)c1ccccc1` (configuration not stated) stands 102 to 104 °C; under `CNC(=O)NC(=O)CCCCl`, 122 to 124 °C.
Under `CC(Cl)C(=O)N1c2ccccc2Sc2ccccc21` (configuration not stated) stands 118 to 120 °C; under `N#Cc1cccnc1C1CC1`, 60 to 62 °C.
On to `Oc1nnc(-c2ccccc2)o1`, for which the melting point was 138 to 140 °C.
For `CCOCCS(N)(=O)=O`, the melting point is 30 to 32 °C.
Under `CCS(=O)(=O)c1cccc(S(=O)(=O)Cl)c1` stands 92 to 94 °C; under `Cc1noc(NC(=O)CCl)n1`, 161 to 163 °C.
For `CC(C)(C)OC(=O)Nc1ccccc1C(=O)O` the value was 154 to 156 °C.
Under `O=C(O)Cc1ccc(S(=O)(=O)N2CCCCC2)s1` stands 81 to 83 °C.
As for `Cc1nn(C)c2c1NC(=O)CO2`, the melting point was in the range of 219 to 221 °C.
`Cc1nc(N2CCNCC2)sc1C` registered a melting point of 72 to 74 °C.
Under `NNc1nccc(N2CCOCC2)n1` stands 146 to 148 °C; under `COc1ccc(C(=O)C=C(SC)SC)cc1`, 99 to 101 °C.
As to `O=[N+]([O-])c1ccc(Oc2ccccc2Br)c(Cl)c1`, the melting point was in the range of 86 to 88 °C.
As for `NS(=O)(=O)C1CCOCC1`, the melting point is 129 to 131 °C.
For the compound `Nc1ccc2c(c1)OC1(CCCCC1)O2`, the melting point lay within 65 to 67 °C.
For `CSc1ccc(Cl)nn1` the value was 104 to 106 °C.
The compound `N#Cc1ccnc(OC2CCC2)c1` gave a melting point of 39 to 41 °C.
In the case of `N#Cc1cccc(N2CCCC2=O)c1`, the melting point lay within 81 to 83 °C.
`CN(CCO)c1ccc([N+](=O)[O-])cc1`: the melting point was 97 to 99 °C.
Under `NCC1CC(=O)Nc2ccccc21` (configuration not stated) stands 142 to 144 °C.
Regarding `Cc1nc(S)c2ccccc2n1`, the melting point was 211 to 213 °C.
As for `CS(=O)(=O)NCCN=C=S`, the melting point lay within 163 to 165 °C.
In turn, `Nc1cccnn1` displayed a melting point of 169 to 171 °C.
The compound `Cc1cc(C)c([N+](=O)[O-])c(C)c1C(=O)O` registered a melting point of 169 to 171 °C.
For the compound `N#CCc1cc2ccccc2nc1Cl`, the melting point was in the range of 128 to 130 °C.
For `O=C(CCl)NCc1ccc(C(=O)N2CCOCC2)cc1` the value was 142 to 144 °C; for `CSc1ncc(C(=O)O)n1-c1ccccc1`, 206 to 208 °C; for `COC(=O)c1cncc(I)c1`, 79 to 81 °C.
`CCOC(=O)c1sc2nc(CN3CCCCC3)nc(Cl)c2c1C` came in with a melting point of 105 to 107 °C.
With `COC(=O)NCc1ccc(N)cc1`, the melting point was in the range of 95 to 97 °C.
Compound `CN(CC(=O)Nc1ccc(Cl)c(C(F)(F)F)c1)C(=O)CCl` showed a melting point of 164 to 165 °C.
The compound `COc1ccccc1-c1cc(N)n(-c2ccc(C)cc2)n1` displayed a melting point of 104 to 106 °C.
Compound `Cn1c(Cl)nnc1-c1ccc(Cl)cc1` registered a melting point of 179 to 181 °C.
Under `O=C(Cc1ccc(O)cc1)NCCO` stands 134 to 136 °C.
`O=C(O)c1ccc(Cn2cccc2)cc1` displayed a melting point of 161 to 163 °C.
With `OC1CCCC1n1cccn1` (configuration not stated), the melting point lay in the range of 48 to 50 °C.
As for `CCOc1ccc(C2(O)CCCC2)cc1`, the melting point was in the range of 88 to 90 °C.
`CC(Cl)c1cccc([N+](=O)[O-])c1` (configuration not stated): the melting point is 33 to 35 °C.
With `COc1ccc(Nc2ncccc2N)cc1`, the melting point is 164 to 166 °C.
The compound `O=C(O)c1ccc(S(=O)(=O)Nc2cccc(Cl)c2F)o1` yielded a melting point of 151 to 153 °C.
As to `Cc1noc2nc3c(cc12)CCOC3=O`, the melting point lay within 224 to 226 °C.
For `CCn1c(N)nc2ccccc21` the value was 152 to 154 °C.
Under `O=C(O)C1=Cc2cc(F)ccc2OC1` stands 209 to 211 °C; under `O=C(Cc1ccccc1)C(Br)c1ccccc1` (configuration not stated), 47 to 49 °C; under `COc1c(OC(F)F)ccc(C=O)c1[N+](=O)[O-]`, 61 to 63 °C.
On to `O=C(O)c1ccc(N2CCCC2=O)cc1`, for which the melting point lay in the range of 250 to 252 °C.
`Cc1ccc(C(=O)NN)o1` yielded a melting point of 59 to 61 °C.
`OCC#Cc1ccc(Cl)cc1`: the melting point is 76 to 78 °C.
In turn, `CCOC(=O)c1sc2nc(CSc3ccccc3)nc(Cl)c2c1C` displayed a melting point of 52 to 54 °C.
With `CCc1cc(Cl)n2c(nc3ccccc32)c1C#N`, the melting point is 175 to 177 °C.
On to `CC(C)(C)OC(=O)Nc1cc(Br)ccc1C(=O)O`, for which the melting point was in the range of 179 to 181 °C.
In the case of `Cc1cc(C(=O)O)sc1Br`, the melting point was 171 to 173 °C.
`Oc1ccc2[nH]ncc2c1` returned a melting point of 184 to 186 °C.
Take `COC(=O)c1ccc(C(N)=S)cc1`: the melting point lay in the range of 189 to 191 °C.
Turning to `CN1CCN(c2ccc(N)cc2Cl)CC1`, the melting point lay within 127 to 129 °C.
On to `COC(=O)c1ccc(Br)cc1F`, for which the melting point was 59 to 61 °C.
